Laboratory results from the supplement of paper PMC10883282.
± gives the standard deviation of the averaged measurements.

How the values were obtained:
Assay in all cases: relative viability vs DMSO control (72 h) (fraction); higher = more viable cells
SW684 = system: SW684
Procedure, shortened: (§1)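 Sarcoma cell lines were seeded in 384-well plates at densities set to reach 80–90% confluence. After 24 h, 2.5 µl of serially diluted compound was added (source plates 10 mM to 0.0002 mM), and plates were held 72 h at 37 °C, 5% CO2, with 0.1% DMSO vehicle and a 5 µM positive control. Relative viability came from ATPLite readings as percent growth, averaged over up to triplicate wells. Data were rescaled so full viability equals 1 and none equals 0.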

A204 = system: A204
Procedure, shortened: as §1

SK-ES-1 = system: SK-ES-1
Procedure, shortened: as §1

G401 = system: G401
Procedure, shortened: as §1

SK-LMS-1 = system: SK-LMS-1
Procedure, shortened: as §1

HS729 = system: HS729
Procedure, shortened: as §1

SW872 = system: SW872
Procedure, shortened: as §1

MES-SA = system: MES-SA
Procedure, shortened: as §1

SYO-1 = system: SYO-1
Procedure, shortened: as §1

SW1353 = system: SW1353
Procedure, shortened: as §1

SW982 = system: SW982
Procedure, shortened: as §1

KHOS-240S = system: KHOS-240S
Procedure, shortened: as §1

`COc1cc2c(Oc3ccc4[nH]c(C)cc4c3F)ccnc2cc1OCC1(N)CC1` [Anlotinib] showed a relative viability (SW684; 0.00017 µM) of 1.15 ± 0.043, a relative viability (SW684; 0.00051 µM) of 1.09 ± 0.048 and a relative viability (SW684; 0.00152 µM) of 1.11 ± 0.022. For the same compound, the relative viability (SW684; 0.00457 µM) was 1.11 ± 0.022, the relative viability (SW684; 0.01372 µM) was 1.12 ± 0.036 and the relative viability (SW684; 0.04115 µM) was 1.14 ± 0.028. The relative viability (SW684; 0.1235 µM) was 1.13 ± 0.021, the relative viability (SW684; 0.3704 µM) was 1.11 ± 0.03 and the relative viability (SW684; 1.111 µM) was 1.07 ± 0.017. It also gave a relative viability (SW684; 3.333 µM) of 0.847 ± 0.034, a relative viability (SW684; 10 µM) of 0.502 ± 0.024 and a relative viability (A204; 0.00017 µM) of 1.08 ± 0.028. For the same compound, the relative viability (A204; 0.00051 µM) was 1.08 ± 0.015, the relative viability (A204; 0.00152 µM) was 1.05 ± 0.042 and the relative viability (A204; 0.00457 µM) was 1.05 ± 0.038. For the same compound, the relative viability (A204; 0.01372 µM) was 1.05 ± 0.041, the relative viability (A204; 0.04115 µM) was 0.997 ± 0.035 and the relative viability (A204; 0.1235 µM) was 0.829 ± 0.042. The relative viability (A204; 0.3704 µM) was 0.475 ± 0.014, the relative viability (A204; 1.111 µM) was 0.36 ± 0.033 and the relative viability (A204; 3.333 µM) was 0.18 ± 0.0053. It also gave a relative viability (A204; 10 µM) of 0.0656 ± 0.0024, a relative viability (SK-ES-1; 0.00017 µM) of 1.05 ± 0.036 and a relative viability (SK-ES-1; 0.00051 µM) of 1.053 ± 0.0094. It also gave a relative viability (SK-ES-1; 0.00152 µM) of 1.04 ± 0.02, a relative viability (SK-ES-1; 0.00457 µM) of 1.03 ± 0.074 and a relative viability (SK-ES-1; 0.01372 µM) of 1.07 ± 0.025. For the same compound, the relative viability (SK-ES-1; 0.04115 µM) was 1.09 ± 0.041, the relative viability (SK-ES-1; 0.1235 µM) was 1.09 ± 0.044 and the relative viability (SK-ES-1; 0.3704 µM) was 1.07 ± 0.02. For the same compound, the relative viability (SK-ES-1; 1.111 µM) was 0.958 ± 0.036, the relative viability (SK-ES-1; 3.333 µM) was 0.104 ± 0.0054 and the relative viability (SK-ES-1; 10 µM) was 0.0396 ± 0.00099. It also gave a relative viability (G401; 0.00017 µM) of 0.964 ± 0.024, a relative viability (G401; 0.00051 µM) of 0.986 ± 0.046 and a relative viability (G401; 0.00152 µM) of 1.01 ± 0.041. The relative viability (G401; 0.00457 µM) was 0.988 ± 0.023, the relative viability (G401; 0.01372 µM) was 0.976 ± 0.032 and the relative viability (G401; 0.04115 µM) was 0.982 ± 0.041. For the same compound, the relative viability (G401; 0.1235 µM) was 0.955 ± 0.037, the relative viability (G401; 0.3704 µM) was 0.89 ± 0.033 and the relative viability (G401; 1.111 µM) was 0.773 ± 0.0087. It also gave a relative viability (G401; 3.333 µM) of 0.445 ± 0.011, a relative viability (G401; 10 µM) of 0.163 ± 0.0031 and a relative viability (SK-LMS-1; 0.00017 µM) of 1.08 ± 0.038. For the same compound, the relative viability (SK-LMS-1; 0.00051 µM) was 1.06 ± 0.039, the relative viability (SK-LMS-1; 0.00152 µM) was 1.08 ± 0.034 and the relative viability (SK-LMS-1; 0.00457 µM) was 1.05 ± 0.015. It also gave a relative viability (SK-LMS-1; 0.01372 µM) of 1.06 ± 0.034, a relative viability (SK-LMS-1; 0.04115 µM) of 1.05 ± 0.051 and a relative viability (SK-LMS-1; 0.1235 µM) of 1.04 ± 0.014. It also gave a relative viability (SK-LMS-1; 0.3704 µM) of 1.03 ± 0.032, a relative viability (SK-LMS-1; 1.111 µM) of 0.85 ± 0.034 and a relative viability (SK-LMS-1; 3.333 µM) of 0.416 ± 0.017. The relative viability (SK-LMS-1; 10 µM) was 0.0427 ± 0.0027, the relative viability (HS729; 0.00017 µM) was 0.944 ± 0.041 and the relative viability (HS729; 0.00051 µM) was 0.908 ± 0.044. For the same compound, the relative viability (HS729; 0.00152 µM) was 0.951 ± 0.04, the relative viability (HS729; 0.00457 µM) was 0.917 ± 0.016 and the relative viability (HS729; 0.01372 µM) was 0.935 ± 0.035. It also gave a relative viability (HS729; 0.04115 µM) of 0.909 ± 0.048, a relative viability (HS729; 0.1235 µM) of 0.911 ± 0.052 and a relative viability (HS729; 0.3704 µM) of 0.795 ± 0.071. For the same compound, the relative viability (HS729; 1.111 µM) was 0.769 ± 0.025, the relative viability (HS729; 3.333 µM) was 0.678 ± 0.051 and the relative viability (HS729; 10 µM) was 0.383 ± 0.026. The relative viability (SW872; 0.00017 µM) was 0.962 ± 0.05, the relative viability (SW872; 0.00051 µM) was 1.01 ± 0.022 and the relative viability (SW872; 0.00152 µM) was 0.985 ± 0.049. It also gave a relative viability (SW872; 0.00457 µM) of 1 ± 0.036, a relative viability (SW872; 0.01372 µM) of 1.02 ± 0.044 and a relative viability (SW872; 0.04115 µM) of 0.996 ± 0.045. It also gave a relative viability (SW872; 0.1235 µM) of 1.01 ± 0.048, a relative viability (SW872; 0.3704 µM) of 1 ± 0.064 and a relative viability (SW872; 1.111 µM) of 0.957 ± 0.03. For the same compound, the relative viability (SW872; 3.333 µM) was 0.676 ± 0.03, the relative viability (SW872; 10 µM) was 0.437 ± 0.013 and the relative viability (MES-SA; 0.00017 µM) was 0.921 ± 0.014. The relative viability (MES-SA; 0.00051 µM) was 0.9145 ± 0.004, the relative viability (MES-SA; 0.00152 µM) was 0.918 ± 0.015 and the relative viability (MES-SA; 0.00457 µM) was 0.9154 ± 0.0067. For the same compound, the relative viability (MES-SA; 0.01372 µM) was 0.947 ± 0.016, the relative viability (MES-SA; 0.04115 µM) was 0.949 ± 0.01 and the relative viability (MES-SA; 0.1235 µM) was 0.924 ± 0.038. The relative viability (MES-SA; 0.3704 µM) was 0.951 ± 0.039, the relative viability (MES-SA; 1.111 µM) was 0.841 ± 0.028 and the relative viability (MES-SA; 3.333 µM) was 0.271 ± 0.0097. It also gave a relative viability (MES-SA; 10 µM) of 0.115 ± 0.0092, a relative viability (SYO-1; 0.00017 µM) of 0.921 ± 0.013 and a relative viability (SYO-1; 0.00051 µM) of 0.923 ± 0.012. The relative viability (SYO-1; 0.00152 µM) was 0.92 ± 0.037, the relative viability (SYO-1; 0.00457 µM) was 0.884 ± 0.021 and the relative viability (SYO-1; 0.01372 µM) was 0.856 ± 0.022. The relative viability (SYO-1; 0.04115 µM) was 0.817 ± 0.04, the relative viability (SYO-1; 0.1235 µM) was 0.679 ± 0.024 and the relative viability (SYO-1; 0.3704 µM) was 0.529 ± 0.019. It also gave a relative viability (SYO-1; 1.111 µM) of 0.46 ± 0.0095, a relative viability (SYO-1; 3.333 µM) of 0.328 ± 0.019 and a relative viability (SYO-1; 10 µM) of 0.115 ± 0.0066. The relative viability (SW1353; 0.00017 µM) was 0.9631 ± 0.0076, the relative viability (SW1353; 0.00051 µM) was 0.99 ± 0.046 and the relative viability (SW1353; 0.00152 µM) was 0.985 ± 0.022. The relative viability (SW1353; 0.00457 µM) was 0.99 ± 0.042, the relative viability (SW1353; 0.01372 µM) was 0.95 ± 0.052 and the relative viability (SW1353; 0.04115 µM) was 0.976 ± 0.029. For the same compound, the relative viability (SW1353; 0.1235 µM) was 0.9632 ± 0.0092, the relative viability (SW1353; 0.3704 µM) was 0.937 ± 0.028 and the relative viability (SW1353; 1.111 µM) was 0.88 ± 0.026. For the same compound, the relative viability (SW1353; 3.333 µM) was 0.551 ± 0.021, the relative viability (SW1353; 10 µM) was 0.254 ± 0.018 and the relative viability (SW982; 0.00017 µM) was 1.034 ± 0.0051. It also gave a relative viability (SW982; 0.00051 µM) of 1.04 ± 0.05, a relative viability (SW982; 0.00152 µM) of 1.01 ± 0.028 and a relative viability (SW982; 0.00457 µM) of 1.05 ± 0.04. The relative viability (SW982; 0.01372 µM) was 1.06 ± 0.032, the relative viability (SW982; 0.04115 µM) was 1.06 ± 0.018 and the relative viability (SW982; 0.1235 µM) was 1.05 ± 0.025. The relative viability (SW982; 0.3704 µM) was 0.997 ± 0.021, the relative viability (SW982; 1.111 µM) was 0.956 ± 0.024 and the relative viability (SW982; 3.333 µM) was 0.544 ± 0.021. The relative viability (SW982; 10 µM) was 0.206 ± 0.024, the relative viability (KHOS-240S; 0.00017 µM) was 1.06 ± 0.025 and the relative viability (KHOS-240S; 0.00051 µM) was 1.049 ± 0.0056. The relative viability (KHOS-240S; 0.00152 µM) was 1.04 ± 0.015, the relative viability (KHOS-240S; 0.00457 µM) was 1.06 ± 0.018 and the relative viability (KHOS-240S; 0.01372 µM) was 1.05 ± 0.035. The relative viability (KHOS-240S; 0.04115 µM) was 1.04 ± 0.016, the relative viability (KHOS-240S; 0.1235 µM) was 1.03 ± 0.021 and the relative viability (KHOS-240S; 0.3704 µM) was 0.993 ± 0.052. The relative viability (KHOS-240S; 1.111 µM) was 0.892 ± 0.018, the relative viability (KHOS-240S; 3.333 µM) was 0.464 ± 0.062 and the relative viability (KHOS-240S; 10 µM) was 0.122 ± 0.0076.
